Assay results published in ChEMBL document CHEMBL1201862, “PubChem BioAssay data set” (2004).
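Compound exposure: 48 hours, 5 concentrations, 96-well plates. The concentration for 50% growth inhibition is given as GI50.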 Calls of active or inactive are those of the source. No stated cut-off is given here; in the data, active = GI50 up to about 1.1 µM and inactive = higher.

Legend:
Assay in all cases: growth of human tumour cells (NCI), 48 h
[1] = system: 786-0
[2] = system: A498
[3] = system: A549
[4] = system: ACHN
[5] = system: BT-549
[6] = system: CAKI-1
[7] = system: CCRF-CEM
[8] = system: COLO 205
[9] = system: DU-145
[10] = system: EKVX
[11] = system: HCC 2998
[12] = system: HCT-116
[13] = system: HCT-15
[14] = system: HL-60
[15] = system: HOP-62
[16] = system: HOP-92
[17] = system: HT-29
[18] = system: IGROV-1
[19] = system: K562
[20] = system: KM12
[21] = system: LOX IMVI
[22] = system: M14
[23] = system: MCF7
[24] = system: MDA-MB-231
[25] = system: MDA-MB-435
[26] = system: MDA-N
[27] = system: MOLT-4
[28] = system: Malme-3M
[29] = system: NCI-H226
[30] = system: NCI-H23
[31] = system: NCI-H460
[32] = system: NCI-H522
[33] = system: NCI/ADR-RES
[34] = system: OVCAR-3
[35] = system: OVCAR-4
[36] = system: OVCAR-5
[37] = system: OVCAR-8
[38] = system: PC-3
[39] = system: RXF 393
[40] = system: SF-268
[41] = system: SF-295
[42] = system: SF-539
[43] = system: SK-MEL-28
[44] = system: SK-MEL-2
[45] = system: SK-OV-3
[46] = system: SN12C
[47] = system: SNB-19
[48] = system: SNB-75
[49] = system: SR
[50] = system: SW-620
[51] = system: T47D
[52] = system: TK-10
[53] = system: U-251
[54] = system: UACC-257
[55] = system: UACC-62
[56] = system: UO-31

**Q.** With `COc1ccc(N2C(=O)C3c4[nH]c5ccccc5c4C4c5ccccc5CC4C3C2=O)cc1` (stereo unspecified) as the compound, how does the GI50 [1] read?
**A.** The GI50 was > 100 µM (inactive).

**Q.** What about the GI50 [2] of the same compound?
**A.** Its GI50 is > 100 µM (inactive).

**Q.** And the GI50 [3]?
**A.** Its GI50 is > 100 µM (inactive).

**Q.** What about the GI50 [4] of the same compound?
**A.** The GI50 was > 100 µM (inactive).

**Q.** And the GI50 [5]?
**A.** Its GI50 is > 100 µM (inactive).

**Q.** And the GI50 [6]?
**A.** The GI50 was > 100 µM (inactive).

**Q.** And the GI50 [7]?
**A.** The GI50 was > 100 µM (inactive).

**Q.** What about the GI50 [8] of the same compound?
**A.** The GI50 was > 100 µM (inactive).

**Q.** What about the GI50 [9] of the same compound?
**A.** Its GI50 is > 100 µM (inactive).

**Q.** What about the GI50 [10] of the same compound?
**A.** Its GI50 is > 100 µM (inactive).

**Q.** And the GI50 [11]?
**A.** Its GI50 is > 100 µM (inactive).

**Q.** And the GI50 [12]?
**A.** The GI50 was > 100 µM (inactive).

**Q.** What about the GI50 [13] of the same compound?
**A.** The GI50 was over 100 µM.

**Q.** And the GI50 [14]?
**A.** The GI50 was > 100 µM (inactive).

**Q.** And the GI50 [15]?
**A.** Its GI50 is > 100 µM (inactive).

**Q.** What about the GI50 [16] of the same compound?
**A.** Its GI50 is > 100 µM (inactive).

**Q.** And the GI50 [17]?
**A.** The GI50 was > 100 µM (inactive).

**Q.** And the GI50 [18]?
**A.** The GI50 was > 100 µM (inactive).

**Q.** And the GI50 [19]?
**A.** Its GI50 is > 100 µM (inactive).

**Q.** And the GI50 [20]?
**A.** The GI50 was > 100 µM (inactive).

**Q.** What about the GI50 [21] of the same compound?
**A.** The GI50 was > 100 µM (inactive).

**Q.** What about the GI50 [22] of the same compound?
**A.** The GI50 was > 100 µM (inactive).

**Q.** And the GI50 [23]?
**A.** The GI50 was > 100 µM (inactive).

**Q.** What about the GI50 [24] of the same compound?
**A.** Its GI50 is > 100 µM (inactive).

**Q.** What about the GI50 [25] of the same compound?
**A.** The GI50 was > 100 µM (inactive).

**Q.** And the GI50 [26]?
**A.** The GI50 was > 100 µM (inactive).

**Q.** What about the GI50 [27] of the same compound?
**A.** Its GI50 is > 100 µM (inactive).

**Q.** And the GI50 [28]?
**A.** The GI50 was > 100 µM (inactive).

**Q.** And the GI50 [29]?
**A.** The GI50 was > 100 µM (inactive).

**Q.** What about the GI50 [30] of the same compound?
**A.** The GI50 was > 100 µM (inactive).

**Q.** What about the GI50 [31] of the same compound?
**A.** The GI50 was > 100 µM (inactive).

**Q.** What about the GI50 [32] of the same compound?
**A.** Its GI50 is > 100 µM (inactive).

**Q.** What about the GI50 [33] of the same compound?
**A.** Its GI50 is > 100 µM (inactive).

**Q.** And the GI50 [34]?
**A.** The GI50 was > 100 µM (inactive).

**Q.** And the GI50 [35]?
**A.** The GI50 was > 100 µM (inactive).

**Q.** And the GI50 [36]?
**A.** Its GI50 is > 100 µM (inactive).

**Q.** What about the GI50 [37] of the same compound?
**A.** Its GI50 is > 100 µM (inactive).

**Q.** What about the GI50 [38] of the same compound?
**A.** Its GI50 is > 100 µM (inactive).

**Q.** What about the GI50 [39] of the same compound?
**A.** Its GI50 is > 100 µM (inactive).

**Q.** And the GI50 [40]?
**A.** Its GI50 is > 100 µM (inactive).

**Q.** What about the GI50 [41] of the same compound?
**A.** The GI50 was > 100 µM (inactive).

**Q.** And the GI50 [42]?
**A.** Its GI50 is > 100 µM (inactive).

**Q.** And the GI50 [43]?
**A.** Its GI50 is > 100 µM (inactive).

**Q.** What about the GI50 [44] of the same compound?
**A.** The GI50 was > 100 µM (inactive).

**Q.** And the GI50 [45]?
**A.** The GI50 was > 100 µM (inactive).

**Q.** What about the GI50 [46] of the same compound?
**A.** Its GI50 is > 100 µM (inactive).

**Q.** What about the GI50 [47] of the same compound?
**A.** Its GI50 is > 100 µM (inactive).

**Q.** And the GI50 [48]?
**A.** The GI50 was > 100 µM (inactive).

**Q.** And the GI50 [49]?
**A.** The GI50 was > 100 µM (inactive).

**Q.** What about the GI50 [50] of the same compound?
**A.** Its GI50 is > 100 µM (inactive).

**Q.** And the GI50 [51]?
**A.** The GI50 was > 100 µM (inactive).

**Q.** What about the GI50 [52] of the same compound?
**A.** The GI50 was > 100 µM (inactive).

**Q.** And the GI50 [53]?
**A.** Its GI50 is > 100 µM (inactive).

**Q.** And the GI50 [54]?
**A.** The GI50 was > 100 µM (inactive).

**Q.** What about the GI50 [55] of the same compound?
**A.** The GI50 was > 100 µM (inactive).

**Q.** What about the GI50 [56] of the same compound?
**A.** The GI50 was > 100 µM (inactive).
